“And” between values parts separate entries of the source, which are not always exact repeats. Equal entries are not always repeated. Structures can show the parent of a compound that is named as a salt. Where two headings read alike, the source gives them in different places.
Experiments:
male ICR mice = assay: Mouse antithrombotic assay (collagen-epinephrine thromboembolic death); format: in vivo; conditions: for ED50: ip, 30 min before i.v. collagen-epinephrine challenge, read-out: ED50 (protection from thromboembolic death)
Method: The method employed is similar to Myers, et al's (Proc. Soc. Exp. Biol. Med., Vol. 183, Pages 86-91, 1986) modification of the procedure of DiMinno and Silver (J. Pharmacl. Exp. Therap., Vol. 225, Pages 57-60, 1983). Male ICR mice 25 g-35 g were used in this study. Collagenreagent Horm, containing 1 mg/ml of native collagen fibrils from equine tendons suspended in isotonic glucose solution of pH 2.7 was obtained from Horm -Chemie Momchem GMBH, Munchen, Germany; Epinephrine Injection, USP 1 mg/ml was from Abbott Laboratories, North Chicago, Ill.
Rac.I.2HBr was dissolved in physiological saline and (+)-I (I-C) was dissolved in saline at pH 6.5 at a concentration which yielded the desired dosage when 10 ml/kg of the compound solution was injected intraperitoneally (i.p.) to the mouse. Control mice received 10 ml/kg of the solvent/vehicle intraperitoneally.
Thirty (30) minutes after administration of test compound, the mouse was challenged with intravenous collagen-epinephrine suspension. The procedure is as follows: Fifteen (15) minutes after i.p. administration of test compound, the mouse was given 50-60 mg/kg of pentobarbital sodium (Nembutal). About 10-12 minutes later (when the mouse was anesthetized) the jugular vein was surgically exposed in preparation for the intravenous collagen-epinephrine injection.
Thirty (30) minutes after i.p. administration of the test compound (and about 15 minutes after i.p. Nembutal) the mouse's platelets were challenged with 0.00333 ml/gm (0.10 ml/30 gm mouse) of the intravenous collagen-epinephrine suspension into the jugular vein. [The collagen-epinephrine suspension contained 0.15 mg collagen fibrils and 0.018 mg of epinephrine per ml of the suspension]. The rate of injection for the collagen-epinephrine suspension was consistent from one mouse to the next.
Graded doses of the compound were administered to mice prior to the aggregation challenge. The ED50 was determined graphically from a Probit-log plot of percent of mice protected (Probit) by each dose (log scale) of the compound. […]

[1] = tested on: cytosolic ionized calcium in human platelets; assay: Inhibition of collagen-induced rise in cytosolic ionized calcium (aequorin luminescence); format: cell-based; conditions: for IC50: 1mM [Ca2+]o (n = 4), read-out: Ica50 ± S.E. Collagen-induced (50% inhibition of collagen-induced rise in cytosolic ionized calcium)
Method: Procedure for Cytosolic Ionized Calcium Determination. The basic procedure of Yamaguchi, et al. (Thromb. Res., Vol. 44, Pages 165-174, 1986) was followed. Blood was collected from six blood donors, aged 24-38 years, who had fasted overnight and affirmed abstinence from alcohol, caffeine and medications of any kind for a period of at least one week prior to donation. […] Platelets were collected (800 g, 15 min), resuspended in and washed (800 g, 15 min) with HEPES-buffered saline (140 mM NaCl, 2.7 mM KCl, 0.1% bovine albumin, 0.5% glucose, 3.8 mM HEPES, pH 7.6) with EGTA (5 mM) and PGE1 (1 μM). The platelet pellet was resuspended in 90 μl of the same buffer and added to 20μl of 3 mg/ml aequorin solution in a 1.5 ml Eppendorf centrifuge tube. Six 1 μl aliquots of DMSO were added at 90 second intervals with brief, gentle mixing on a Vortex mixer and the platelet suspension was incubated 2 minutes after the last addition. One ml of HEPES-buffered saline was added, gently mixed, and again incubated for 2 minutes. The platelets were pelleted (1000 g, 30 sec), resuspended in HEPES-buffered saline to which was added either 1 mM Mg Cl2, (calcium-free buffer) or 1 mM Mg Cl2 and 1 mM Ca Cl2 (calcium buffer), depending on the experiment. The platelet count was adjusted to 3-4×10^5 platelets/μl.
The Platelet Ionized Calcium Aggregometer (Chrono-Log Corp., Ltd., Havertown, Pa.) was used to obtain simultaneous aggregation and luminescence data under the following experimental conditions: (1) platelet suspension, 1 ml, was equilibrated at 37° C. with stirring at 1100 rpm; (2) 100 μl (1.2 μg) of fibrinogen was added; (3) the vehicle (95% ethanol) or the test compound in vehicle was added; (4) when needed, 10 μl of the desired concentration of EGTA was added 30 seconds prior to addition of the agonist; then (5) the agonist (Collagen, 5 μg or 20 μg) was added and the time noted. At one minute after addition of the agonist in Channel 1, a platelet sample containing fibrinogen in Channel 2 was lysed with 10 μl of a 1:1 solution of Triton X-100 (final concentration 0.005%) 10 mM CaCl2 (final concentration 0.5 mM). Treated and control […] data were corrected for time dependent decay of fluorescence using data from the untreated lysed controls.
Normally 4 compound-treated samples (at 4 different concentrations) interspersed with 3 control samples were evaluated at 4.5 minute intervals starting 18-23 minutes after the DMSO treatment. The Ia50 values were calculated as described earlier. The compound concentrations effecting 50% inhibition (Ica50) of collagen-induced cytosolic ionized calcium values was determined by linear regression analysis.
Compounds I-rac, (+)-I,(IC) and (-)-I(IA) were evaluated. The Ia50 (collagen-induced aggregation) and Ica50 (compound concentration required to inhibit by 50% the collagen-induced rise in cytosolic ionized calcium)values determined with platelet suspensions in HEPES-buffered saline containing 1.0 mM CaCl2 were as follows:
Collagen-stimulation of platelets suspended in media containing 1.0 mM of Ca^2+ (FIG. 13) or 1.0 mM (FIG. 14A) or 2.0 mM (FIG. 14B) EGTA (a calcium chelator) gave […] cytosolic ionized calcium peak (aequorin-indicated luminescence). Contrarily, two phases of Ca^2+ mobilization were observed when aequorin-loaded human platelets suspended in a medium containing 0.1 mM EGTA were stimulated with collagen (FIG. 14, designation D). The first corresponded to platelet shape change and the second peak to aggregation. […] The platelet suspension (1.0 ml) was pre-incubated with 1.0 μl of (A) 95% ethanol, (B) a solution of Compound I (14.59 μM) in 95% ethanol, or (C) a solution of Compound I (23.87 μM) in 95% ethanol. Collagen (20 μg) was added at time indicated by the arrows. Luminescence was again recorded at a gain of 0.5. […] Accordingly, the stereo-selective inhibitory properties of the compounds of the present invention appear to be mediated through the inhibition of [Ca^2+ ].

SMILES	ED50 (male ICR mice)	Effect on platelet shape change peak and aggregation peak of Ca2+ mobilization ([1]; 0.1 mM EGTA, collagen 20 μg, Compound I 14.59 μM or 23.87 μM (FIG. 15))	IC50 ([1]; Homo sapiens, Platelet, collagen-induced)	Potency in protecting mice from thromboembolic death relative to racemic I.2HBr (male ICR mice; i.p.)	IC50 ([1]; collagen-induced, listed as IC (+)-I, dihydrobromide)	Potency in inhibiting the rise of cytosolic ionized calcium compared to racemic I, I-A and IB ([1]; collagen-induced, Ca2+-containing medium)
CCN(CC)C(=O)C1CCCN(Cc2ccc(CN3CCCC(C(=O)N(CC)CC)C3)cc2)C1 (racemic) [Compound I, α-α'-Bis[3-(N,N-diethyl-carbamoyl)piperidino]-p-xylene dihydrobromide]	104 mg/kg and 164 µmol/kg	inhibited both the platelet shape change peak and the aggregation peak	21.2 µM	–	–	–
CCN(CC)C(=O)C1CCCN(Cc2ccc(CN3CCCC(C(=O)N(CC)CC)C3)cc2)C1 (single isomer, unassigned) [IC, α-α'-Bis(3-N,N-diethylcarbamoyl)piperidino]-p-xylene dihydrobromide]	33.5 mg/kg and 71.2 µmol/kg	–	–	approximately three times more potent	3.6 ± 1.2 µM	much more potent
